This note sets out measurements from paper PMC9115767 (European journal of medicinal chemistry, 2021).

As a reminder, the CLint scaled is the rate of metabolic loss divided by the concentration. Lower therefore signals greater metabolic stability. Usually CC50 stands for the concentration giving 50% cytotoxicity. Read a high CC50 as lower toxicity to the cells. What is called pEC50 is −log10 of the EC50, conventionally taken in molar units.

Series [1] is described as follows: in vitro. Conditions: human, microsomes.
Series [2] relates to HIV-2 ROD. The series can be described thus: microbe, parasite or virus in culture. The class given is cell-based.
The subject of series [3] is MT-4 cells.
Series [4] concerns HIV-1 IIIB. In kind it is cell-based.
The mark [5] stands for this setting: selectivity index, ratio CC50/EC50, HIV-1 IIIB.
[6] abbreviates: selectivity index, ratio CC50/EC50, HIV-2 ROD.

pEC50: −log10 of the molar value. Where two headings read alike, the source gives them in different places.

For the compound `COc1ccc(N(C)C(=O)[C@H](Cc2ccccc2)NC(=O)CN2CCN(S(=O)(=O)c3ccc(N)cc3)CC2=O)cc1` [Compound 11l, reference compound], the intrinsic clearance (CLint scaled) at 3 h, 100 µM in series [1] came out at 356 mL/min/kg.

In the case of `COc1ccc(N(C)C(=O)[C@H](Cc2ccccc2)NC(=O)CN2CC(=O)N(CC(=O)N[C@@H](Cc3ccccc3)C(=O)N(C)c3ccc(OC)cc3)CC2=O)cc1` [Q-a1, (2S,2′S)-2,2'-((2,2'-(2,5-dioxopiperazine-1,4-diyl)bis(acetyl))bis(azanediyl)) bis(N-(4-methoxyphenyl)-N-methyl-3-phenylpropanamide)], in series [2], the “SI HIV ROD” value is listed as <1.00.

As to `COc1ccc(N(C)C(=O)[C@H](Cc2cc(F)cc(F)c2)NC(=O)CN2CC(=O)N(CC(=O)N[C@@H](Cc3cc(F)cc(F)c3)C(=O)N(C)c3ccc(OC)cc3)CC2=O)cc1` [Q-a2, (2S,2S)-22′-((2,2'-(2,5'-dioxopiperazine-1,4-diyl)bis(acetyl))bis(azanediyl)) bis(3-(3,5-di-N-difluorophenyl)-N-(4-methoxyphenyl)-N-methylpropanamide)], the CLint scaled at 3 h, 100 µM in series [1] is 760 mL/min/kg.

Consider `CN(C(=O)[C@H](Cc1ccccc1)NC(=O)CN1CCNCC1=O)c1ccccc1` [Q-b1, (S)–N-methyl-2-(2-(2-oxopiperazin-1-yl)acetamido)-N,3-diphenyl propanamide], for which the cytotoxic concentration (CC50) in series [3] is > 317 µM. Moreover, the “SI HIV IIIB” value in series [4] is recorded as >1.28. In series [2], the “SI HIV ROD” value is on record as >1.19.

With `COc1ccc(N(C)C(=O)[C@H](Cc2ccccc2)NC(=O)CN2CCNCC2=O)cc1` [Q-b2, (S)–N-(4-methoxyphenyl)-N-methyl-2-(2-(2-oxopiperazin-1-yl)acetamido)-3-phenylpropanamide], in series [4] (setting [5]), the “SI HIV IIIB” value is reported as >3.30. In addition, the “SI HIV ROD” value in series [2] (setting [6]) is reported as >8.94.

Take `COc1ccc(N(C)C(=O)[C@H](Cc2ccccc2)NC(=O)CN2CCN(CC(=O)N[C@@H](Cc3ccccc3)C(=O)N(C)c3ccc(OC)cc3)C(=O)C2)cc1` [Q-c1, (2S,2′S)-2,2'-((2,2'-(2-oxopiperazine-1,4-diyl)bis(acetyl))bis(azanediyl)) bis(N-(4-methoxyphenyl)-N-methyl-3-phenylpropanamide)]: the “SI HIV IIIB” value in series [4] is reported as ≤4.29. Further, the “SI HIV ROD” value in series [2] is listed as <1.00.

Regarding `COc1ccc(N(C)C(=O)[C@H](Cc2cc(F)cc(F)c2)NC(=O)CN2CCN(CC(=O)N[C@@H](Cc3ccccc3)C(=O)N(C)c3ccc(OC)cc3)C(=O)C2)cc1` [Q-c2, (S)-3-(3,5-difluorophenyl)-N-(4-methoxyphenyl)-2-(2-(4-(2-(((S)-1-((4-methoxyphenyl)(methyl)amino)-1-oxo-3-phenylpropan-2-yl)amino)-2-oxoethyl)-3-oxopiperazin-1-yl)acetamido)-N-methylpropanamide], in series [2] (setting [6]), the “SI HIV ROD” value is listed as <1.00.

As for `COc1ccc(N(C)C(=O)[C@H](Cc2ccccc2)NC(=O)CN2CCN(CC(=O)N[C@@H](Cc3ccccc3)C(=O)N(C)c3ccccc3)CC2=O)cc1` [Q-c3, (S)–N-(4-methoxyphenyl)-N-methyl-2-(2-(4-(2-(((S)-1-(methyl(phenyl)amino)-1-oxo-3-phenylpropan-2-yl)amino)-2-oxoethyl)-2-oxopiperazin-1-yl)acetamido)-3-phenylpropanamid], the “SI HIV IIIB” value in series [4] (setting [5]) is on record as <1.00. In addition, the “SI HIV ROD” value in series [2] (setting [6]) is reported as <1.00.

As for `COc1ccc(N(C)C(=O)[C@H](Cc2ccccc2)NC(=O)CN2CCN(CC(=O)N[C@@H](Cc3cc(F)cc(F)c3)C(=O)N(C)c3ccc(OC)cc3)C(=O)C2)cc1` [Q-c5, (S)-3-(3,5-difluorophenyl)-N-(4-methoxyphenyl)-2-(2-(4-(2-(((S)-1-((4-methoxyphenyl)(methyl)amino)-1-oxo-3-phenylpropan-2-yl)amino)-2-oxoethyl)-2-oxopiperazin-1-yl)acetamido)-N-methyl-propanamide], the “SI HIV ROD” value in series [2] (setting [6]) is <1.00.

Take `COc1ccc(N(C)C(=O)[C@H](Cc2cc(F)cc(F)c2)NC(=O)CN2CCN(CC(=O)N[C@@H](Cc3ccccc3)C(=O)N(C)c3ccccc3)CC2=O)cc1` [Q-c6, (S)-3-(3,5-difluorophenyl)-N-(4-methoxyphenyl)-N-methyl-2-(2-(4-(2-(((S)-1-(methyl(phenyl)amino)-1-oxo-3-phenylpropan-2-yl)amino)-2-oxoethyl)-2-oxopiperazin-1-yl)acetamido)propenamide]: in series [2], the “SI HIV ROD” value was <1.00.

For the compound `CN(C(=O)[C@H](Cc1ccccc1)NC(=O)CN1CCN(CC(=O)N[C@@H](Cc2ccccc2)C(=O)N(C)c2ccccc2)C(=O)C1)c1ccccc1` [Q-c7, (2S,2′S)-2,2'-((2,2'-(2-oxopiperazine-1,4-diyl)bis(acetyl))bis(azanediyl)) bis(N-methyl-N,3-diphenylpropanamide)], in series [4], the “SI HIV IIIB” value was <1.00. Further, in series [2], the “SI HIV ROD” value is <1.00. The pEC50 in series [2] (Human immunodeficiency virus 2, MT4, read-out: EC50 HIV ROD) is < 4.49.

In the case of `COc1ccc(N(C)C(=O)[C@H](Cc2cc(F)cc(F)c2)NC(=O)CN2CCN(CC(=O)N[C@@H](Cc3ccccc3)C(=O)N(C)c3ccccc3)C(=O)C2)cc1` [Q-c8, (S)-3-(3,5-difluorophenyl)-N-(4-methoxyphenyl)-N-methyl-2-(2-(4-(2-(((S)-1-(methyl(phenyl)amino)-1-oxo-3-phenylpropan-2-yl)amino)-2-oxoethyl)-3-oxopiperazin-1-yl)acetamido)propenamide], the “SI HIV ROD” value in series [2] is given as <1.00.

With `COc1ccc(N(C)C(=O)[C@H](Cc2ccccc2)NC(=O)CN2CCN(CC(=O)N[C@@H](Cc3ccccc3)C(=O)N(C)c3ccccc3)C(=O)C2)cc1` [Q-c9, (S)–N-(4-methoxyphenyl)-N-methyl-2-(2-(4-(2-(((S)-1-(methyl(phenyl)amino)-1-oxo-3-phenylpropan-2-yl)amino)-2-oxoethyl)-3-oxopiperazin-1-yl)acetamido)-3-phenylpropanamide], the “SI HIV IIIB” value in series [4] (setting [5]) is ≤6.45. The “SI HIV ROD” value in series [2] (setting [6]) is <1.00.
